The values below come from ChEMBL document CHEMBL5528035, “Design, Synthesis, and Biological Evaluation for First GPX4 and CDK Dual Inhibitors” (J Med Chem, 2024).

Each structure is given as a SMILES string. Activity calls are given as the source filed them. The calls are words filed in the database; no cut-off is given here.

Series [1] is described as follows: Clearance in Sprague-Dawley rat at 10 mg/kg,iv administration measured upto 24 hrs by LC-MS/MS analysis. It counts as ADME, organism-based. Conditions: in vivo.
Series [2] deals with HCT-116. As to the kind of experiment: cells. Particulars: Homo sapiens, HCT-116, 48 h.
Description: Antiproliferative activity against human HCT-116 cells assessed as inhibition of cell growth incubated for 48 hrs by CCK-8 assay
Series [3] in a line: Intrinsic clearance in human liver microsomes in presence of NADPH incubated for 5 to 45 mins by LC/MS analysis. It counts as ADME, Microsome. Particulars: time 5-45 min, read-out: CLH.
In series [4] the test system is A549. As to the kind of experiment: cells. Particulars: Homo sapiens, A549, 48 h.
Description: Antiproliferative activity against human A549 cells assessed as inhibition of cell growth incubated for 48 hrs by CCK-8 assay
Series [5] concerns MDA-MB-231. As to the kind of experiment: cells. Particulars: Homo sapiens, MDA-MB-231, 48 h.
Description: Antiproliferative activity against human MDA-MB-231 cells assessed as inhibition of cell growth incubated for 48 hrs by CCK-8 assay
Series [6] in a line: AUC (0 to t) in Sprague-Dawley rat at 10 mg/kg,iv administration measured upto 24 hrs by LC-MS/MS analysis. It counts as ADME, organism-based. Conditions: in vivo.
Series [7] is described as follows: MRT (0 to t) in Sprague-Dawley rat at 10 mg/kg,iv administration measured upto 24 hrs by LC-MS/MS analysis. Conditions: in vivo. It counts as ADME, organism-based.
Series [8] in a line: Cmax in Sprague-Dawley rat at 10 mg/kg,iv administration measured upto 24 hrs by LC-MS/MS analysis. Type of series: ADME, organism-based. Particulars: in vivo.
Series [9] can be described thus: Half life in human liver microsomes in presence of NADPH incubated for 5 to 45 mins by LC/MS analysis. Type of series: ADME, Microsome. Particulars: time 5-45 min.
Series [10] in a line: Tmax in Sprague-Dawley rat at 10 mg/kg,iv administration measured upto 24 hrs by LC-MS/MS analysis. Type of series: ADME, organism-based. Conditions: in vivo.
The test system of series [11] is MDA-MB-231. The series can be described thus: Antitumor activity against human MDA-MB-231 cells xenografted in BALB/c mouse assessed as tumor growth inhibition at 40 mg/kg,ip administrated for 21 consecutive days. Particulars: read-out: TGI. It counts as functional. (In general: Xenograft models place foreign cells or tissue in a host animal.)
In series [12] the test system is HepG2. The series can be described thus: cells. Particulars: Homo sapiens, HepG2, 48 h.
Description: Antiproliferative activity against human HepG2 cells assessed as inhibition of cell growth incubated for 48 hrs by CCK-8 assay
The nature of series [13]: Half life in Sprague-Dawley rat at 10 mg/kg,iv administration measured upto 24 hrs by LC-MS/MS analysis. It counts as ADME, organism-based. Conditions: in vivo.
Series [14] has as its target CDK6/cyclin D3 (Homo sapiens) (UniProt P30281+Q00534). The series can be described thus: Inhibition of CDK6/CyclinD3 (unknown origin) at 100 nM preincubated for 15 mins followed by substrate and ATP addition incubated for 10 mins by ADP-glo luminescent assay relative to control. Type of series: protein-complex assay. Conditions: time 25.0 min.
In series [15] the test system is HCT-116. The series can be described thus: Induction of cell cycle arrest in human HCT-116 cells assessed as accumulation of cells at G1 phase at 10 uM incubated for 24 hrs by RNase/PI staining based flow cytometric analysis. It counts as functional. On the technique in general: In flow cytometry, cells or beads pass a laser one at a time.
Series [16] has as its target CDK2/Cyclin A2 (Homo sapiens) (UniProt P24941+P20248). The series can be described thus: Inhibition of CDK2/CyclinA2 (unknown origin) at 100 nM preincubated for 15 mins followed by substrate and ATP addition incubated for 10 mins by ADP-glo luminescent assay relative to control. Conditions: time 25.0 min. Type of series: protein-complex assay.
Series [17] has as its system HCT-116. As to the kind of experiment: Induction of cell cycle arrest in human HCT-116 cells assessed as accumulation of cells at G2 phase at 10 uM incubated for 24 hrs by RNase/PI staining based flow cytometric analysis. Type of series: functional.
Series [18] has as its system MDA-MB-231. The series can be described thus: Induction of cell cycle arrest in human MDA-MB-231 cells assessed as accumulation of cells at G1 phase at 10 uM incubated for 24 hrs by RNase/PI staining based flow cytometric analysis. It counts as functional.
The subject of series [19] is MDA-MB-231. The series can be described thus: Induction of cell cycle arrest in human MDA-MB-231 cells assessed as accumulation of cells at G2 phase at 10 uM incubated for 24 hrs by RNase/PI staining based flow cytometric analysis. It counts as functional.

As a reminder, the clearance is a measure of how efficiently the substance is removed, as volume per time. Usually IC50 stands for the concentration that gives 50% inhibition. Higher therefore signals lower potency. For orientation: AUC(0-t) means the area under the concentration-time curve up to a stated or last time point. A lower AUC(0-t) goes with low exposure. Usually MRT last stands for a mean duration of stay, worked out from the concentration-time curve. The term Cmax denotes the maximum level reached in the sampled fluid or tissue. One may read the half-life as how long it takes for the measured level to halve. As a reminder, the Tmax is the time from dosing to the highest level. For the compound `COc1ccc(N(C(=O)CCl)C(C(=O)NCCc2ccccc2)c2cccs2)cc1Cl` (configuration not stated), the clearance in series [1] is 20.8 mL/min/kg. For the same compound, the IC50 in [2] was 4.14 µM; in series [4] it was 2.09 µM; in series [5], 2.27 µM; in series [12], 3.71 µM. The CLint scaled in series [3] was 2680 mL/min/kg. The same compound returned an exposure AUC(0-t) at 24 h in series [6] of 8020 ng·h/mL. Besides, the MRT last at 24 h in series [7] was 1.8 h. The compound further displayed a Cmax in [8] of 8530 ng/mL. Further, the half-life was 0.01 h in series [9] and 1.7 h in series [13]. In [10], the Tmax worked out at 0.8 h. Further, the inhibition in vivo at 40 mg/kg in [11] was found to be 60.9%.

The inhibition is how much of the control response was suppressed. A high value points to strong suppression. In the case of `O=C1Nc2ccccc2/C1=C1/Nc2ccccc2/C1=N\O`, the inhibition is 51.1% in series [14] and 40.3% in [16]. Moreover, the clearance in series [1] was 12.8 mL/min/kg. Moreover, the half-inhibitory concentration (IC50) in [2] came out at 4.22 µM; in series [4] it was 4.04 µM; in [5] it was 5.16 µM; in series [12], 5.66 µM. The outcome in series [15], in series [17], in series [18] and in series [19] was Active. In series [3], the CLint scaled came to 55.2 mL/min/kg. The area under the curve AUC(0-t) at 24 h in series [6] was 12900 ng·h/mL. The same compound had a mean residence time (MRT last) at 24 h in series [7] of 2.7 h. The compound also returned a maximum concentration (Cmax) in series [8] of 8730 ng/mL. Besides, the values for the half-life in series [9] and in [13] were 0.483 h and 3.8 h, respectively. Also, the time of peak concentration (Tmax) in series [10] was 0.8 h. In addition, the inhibition in vivo at 40 mg/kg in series [11] worked out at 59.4%.
